Measured values published in patent US5523296A, “1,3-benzodioxole and 1,2-dialkoxybenzene derivatives as ocular hypotensive agents” (Allergan, Inc., priority 1994, dated 1996).

Experiments:
[1] = system: intraocular pressure in dog eyes; experiment: intraocular pressure in eyes of dogs (pneumatonometry); type: in vivo, beagle dogs; conditions: 6 hours after administr., dog eye
Procedure: The assay is descibed as follows: male and female beagle dogs weighing 10-15 kg had been trained for a minimum of 2 months so that intraocular pressure could be measured without the use of restraining devices. Intraocular pressure was measured by pneumatonometry using applanation tonometers (Alcon). One minute prior to tonometry, 25 μl of proparacaine (Allergan, Irvine Calif.) was applied to minimize ocular discomfort during the procedure. Determination of the effects of the compounds of the invention on intraocular pressure involved administration of 1 to 25 μl of solution of the compound to one eye and an equal volume of vehicle to the contralateral eye as a control.
The effect of the compounds of the invention to lower intraocular pressure in dog eyes, in accordance with the above-described assay is shown in Table 1 with respect to the following compounds: […]

Swiss 3T3 cells = experiment: inhibition of DNA synthesis: incorporation of tritium labeled thymidine into Swiss 3T3 cells; type: cell-based, mouse; conditions: 22 hours incubation, 5 hours pulse-labeling, CPM per μg DNA, mean of quadruplicates, vehicle 2601
Procedure: In addition, compounds of the invention were also found to inhibit DNA synthesis as observed in an assay where the incorporation of tritium labeled thymidine into Swiss 3T3 cells is measured. The assay is described as follows.
Swiss mouse 3T3 cells were maintained in Dulbecco's modified Eagle's medium (DMEM) low glucose and supplemented with 10% fetal bovine serum FBS), 2 mM 1-glutamine and 1% antibiotic-antimycotic 100×. The cultures were incubated in 5% CO2 in air at 37° C. Confluent cultures were trypsinized and plated in quadruplicate cultures for experiments. Cells were plated at 1×10^5 cells per 35 mm well in DMEM containing 10% FBS in 6-well cluster plates and allowed to become confluent in 3 days. The cells were then made quiescent by washing them with Hank's balanced salt solution (HBSS) and incubating them for 24 hours in DMEM with 0.5% FBS. The cultures were then refed fresh DMEM containing 0.5% FBS and various concentrations of the test compounds. All compounds were dissolved in absolute ethanol, diluted with sterile filtered normal saline and added to the medium so that the final ethanol control cultures were incubated in medium containing 0.01% or less […]. […]
Pulse-labeling of the cultures consisted of collecting the conditioned, drug-treated or control containing media, then adding 1μ Ci/ml [^3 H]-TdR and incubating the cultures in the [^3 H]-TdR containing medium for 5 hours. […] Radioactivity was measured by liquid-scintillation counting using Beckman HP cocktail. […] After centrifugation as before, an aliquot of the supernatant containing [^3 H]-TdR incorporated into DNA (S2) was assayed for radioactivity by scintillation counting.
An aliquot of the remaining S2 supernatant was assayed for quantity of DNA by the diphenylamine method. […] Absorbance of the DNA standards and samples was measured in a Beckman Biomek spectrophotometer at 600 nm wavelength.
The data was expressed as CPM ([^3 H]-TdR incorporated into DNA) per μg DNA and the mean of the quadruplicate samples was obtained for each experiment. […]

Structure (SMILES)	Change in IOP ([1]; 0.1 %)	also measured
COC(=O)CCCCc1cc2c(cc1C(O)CCc1ccccc1)OCO2 (racemic) [Compound 1, (±)-Methyl5-[6-(1-hydroxy-3-phenylpropyl)]-1,3-benzodioxol-5-yl]-pentanoate]	-1.0 mm of Hg	–
OCCCCCc1cc2c(cc1C(O)CCc1ccccc1)OCO2 (racemic) [Compound 2, (±)-5-[6-(1-hydroxy-3-phenylpropyl)]-1,3-benzodioxol-5yl]pentanol]	-1.25 mm of Hg	–
CCCCCC(O)c1cc2c(cc1CCCCCO)OCO2 (racemic) [Compound 3, (±)-5-[6-(1-hydroxy)hexyl]-1,3-benzodioxol-5-yl]-pentanol]	-4.2 mm of Hg	Change in IOP ([1]; 0.01 %): -3.0 mm of Hg
CCCCCC(O)c1cc(OC)c(OC)cc1CCCCC(=O)O (racemic) [Compound 4, (±)-5-[2-(1-Hydroxy)hexyl-4,5-dimethoxyphenyl-]-1-pentanoic acid]	-1.2 mm of Hg	–
CCCCCC(O)c1cc2c(cc1CCCCC(=O)O)OCO2 (racemic) [Compound 5, (±)-5-[6-(1-hydroxy)hexyl]-1,3-benzodioxol-5-yl]-pentanoic acid]	–	CPM ([3H]-TdR incorporated into DNA) (Swiss 3T3 cells; 10^-5 M): 1454 CPM; CPM ([3H]-TdR incorporated into DNA) (Swiss 3T3 cells; 10^-6 M): 1598 CPM; CPM ([3H]-TdR incorporated into DNA) (Swiss 3T3 cells; 10^-7 M): 2102 CPM
OCCCCCc1cc2c(cc1C(O)CCc1cccs1)OCO2 (racemic) [Compound 6, (±)-5-[[6-(1-hydroxy-3-(2-thienyl)propyl]-1,3-benzodioxolyl]pentanol]	-1.1 mm of Hg	–
O=C(O)CCCCc1cc2c(cc1C(O)CCc1cccs1)OCO2 (racemic) [Compound 7, (±)-5-[[6-(1-hydroxy-3-(2-thienyl)propyl)]-1,3-benzodioxolyl]pentanoic acid]	-1.0 mm of Hg	–
